According to patent publication US20220049283A1, “Method of detecting SARS-CoV-2 cleavage targeted proprotein convertase and facilitated protease activity” (priority 2020, published 2022):

Test system: SARS-CoV-2 specific substrate (S1/S2 boundary peptide)
Type: biochemical
Conditions: substrate 10 ng/well, 25 min incubation, OD 450 nm, FIG. 4

trypsin
lowest amount of enzyme from which cleavage activity can be detected: 10 ng
